# Assays:
# Salmonella typhimurium [1] = test: Genotoxicity in Salmonella typhimurium TA100 at 500 ug/plate by Ames test in presence of S9 fraction; format: toxicity, organism-based; conditions: salmonella enterica subsp. enterica serovar typhimurium
# [2] = tested on: Mycobacterium tuberculosis; test: Antimycobacterial activity against Mycobacterium tuberculosis H37Rv ATCC 27294 after 5 days by microdilution method; format: functional; conditions: H37Rv ATCC 27294, 120 h
# [3] = Inhibition of Mycobacterium tuberculosis DprE1 using farnesyl-phosphoryl-beta-D-ribofuranose as substrate preincubated for 30 mins before substrate addition by peroxidase coupled assay
# Salmonella typhimurium [4] = test: Genotoxicity in Salmonella typhimurium TA100 at 500 ug/plate by Ames test in absence of S9 fraction; format: toxicity, organism-based; conditions: salmonella enterica subsp. enterica serovar typhimurium
smiles,measurement,setting,value
COCc1nc2cc(C(F)(F)F)cc([N+](=O)[O-])c2s1,Activity,Salmonella typhimurium [1],Non-toxic
same,MIC,[2],> 32 µg/mL
same,IC50,[3],5.9 µM
same,Activity,Salmonella typhimurium [4],Non-toxic
